Experimental data published in patent publication US11890335B2, “ErbB peptide pharmaceutical and vaccine compositions and therapeutic uses thereof for cancer” (L2 Diagnostics, LLC, priority 2017, dated 2024).
“Also recorded” adds a separate entry of the source. *1 amine or outer side, *2 acyl side, *3 side chain or, on linkers, in order; H or OH if unused. Where a SMILES comes first, the peptide text is derived from it. [ ]: non-standard residue; d: D form. βAsp = O=C(O)[C@H](CC(=O)[*:2])N[*:1]

Key:
[1] = tested on: T cells from EGFR p580 immunized mice; assay: T cell proliferation assay, 3H-thymidine; format: cell-based; conditions: lymph node cells of immunized C57BL/6 mice re-stimulated 72 h with peptide
[2] = target: T1, recombinant HER2 extracellular domain (Homo sapiens, UniProt P04626); assay: ELISA, immune serum binding to recombinant HER2 extracellular domain; conditions: serum 1:100 dilution
T1 construct: The extracellular domain of HER2 was a kind gift of Dr. Daniel Leahy
Experimental: (§1) Polystyrene microtiter plates (Nunc) were coated with either 50 μg/ml peptide or 1 μg of rHER2 or rHER3 extracellular domains in buffer (0.05 M carbonate-bicarbonate buffer, pH 9.6; Sigma) and incubated overnight at 4° C. Wells were washed, blocked with PBS containing 3% bovine serum albumin (BSA) followed by the addition of serum samples (1:100 dilution) for 2 h at room temperature. Alkaline phosphatase conjugated-goat anti-mouse IgG antibody (Southern Biotech) was added to the wells at a 1:1000 dilution and incubated at room temperature for 1.5 h. Wells were washed one last time, and developed by the addition of the substrate p-nitrophenyl phosphate (Sigma). Wells were read on a SpectraMax 450 ELISA reader (Molecular Dynamics) at 405 nm.

[3] = target: T2, recombinant HER3 extracellular domain (Homo sapiens, UniProt P21860); assay: ELISA, immune serum binding to recombinant HER3 extracellular domain; conditions: serum 1:100 dilution
T2 construct: Recombinant human HER3 extracellular domain was purchased from R&D Systems; purchased R&D Systems
T2 sequence (P21860 20-643 limits assumed): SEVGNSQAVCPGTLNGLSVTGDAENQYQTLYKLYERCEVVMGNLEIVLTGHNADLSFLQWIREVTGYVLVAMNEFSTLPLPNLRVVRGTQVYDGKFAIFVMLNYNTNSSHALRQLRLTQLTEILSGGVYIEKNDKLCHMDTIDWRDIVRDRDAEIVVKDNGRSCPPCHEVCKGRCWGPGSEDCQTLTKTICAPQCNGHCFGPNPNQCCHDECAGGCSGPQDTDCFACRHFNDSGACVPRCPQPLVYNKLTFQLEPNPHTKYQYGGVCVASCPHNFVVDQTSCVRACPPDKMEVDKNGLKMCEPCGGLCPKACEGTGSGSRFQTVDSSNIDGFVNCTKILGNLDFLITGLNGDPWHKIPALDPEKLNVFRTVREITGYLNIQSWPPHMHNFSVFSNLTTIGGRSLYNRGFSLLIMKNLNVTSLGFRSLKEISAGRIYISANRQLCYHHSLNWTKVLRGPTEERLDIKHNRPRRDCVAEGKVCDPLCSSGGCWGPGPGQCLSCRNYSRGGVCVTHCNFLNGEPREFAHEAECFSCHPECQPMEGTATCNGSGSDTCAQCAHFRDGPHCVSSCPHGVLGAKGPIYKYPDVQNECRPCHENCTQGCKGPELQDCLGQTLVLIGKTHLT
Experimental: as §1

human EGFR on A431 cells = assay: Flow cytometry, binding to A431 cells; conditions: for Staining of A431 cells by flow cytometry: serum 1:100 or cetuximab 5 μg/ml
Experimental: (§2) Cells (10^5 cells/sample) were stained with a 1:100 dilution of serum in PBS with 0.1% BSA and 0.05% sodium azide for 1 h at 4° C. Cells were washed and incubated with a 1:100 dilution of either anti-mouse IgG fluorescein isothiocyanate (FITC; Sigma) or anti-human IgG AlexaFluor 488 (Molecular Probes, Invitrogen) for 1 h at 4° C. Some samples were further stained using anti-FITC AlexaFluor 488. Cells were washed and fixed in PBS+1% paraformaldehyde. Cells were analyzed on a FACSCalibur (BD Biosciences) with FlowJo software (Tree Star). Controls included unstained cells and cells stained with secondary antibody alone.

HER4 p578 peptide = target: T3, HER4 p578 peptide (Homo sapiens, UniProt Q15303); assay: ELISA, immune serum binding to HER4 p578 peptide; conditions: data not shown
T3 construct: host or cells: chemical synthesis
Experimental: as §1

EGFR peptides = assay: ELISA, antisera against the panel of EGFR peptides; format: binding, murine (mu) and human (hu); conditions: 100 μg peptide in CFA, boost in IFA, sera day 28
Source text: (§3) Female Balb/c or female C57BL/6 mice, 6-8 weeks old, were obtained from the National Cancer Institute. All mice were housed at the Yale University School of Medicine Animal Facility. All protocols were consistent with accepted guidelines of the National Institutes of Health for the care and use of laboratory animals as well as approved by the Yale University Institutional Animal Care and Use Committee. For the generation of antibody, three to five Balb/c or C57BL/6 mice per group were immunized intraperitoneally and subcutaneously in one footpad with 100 μg of peptide emulsified 1:1 of PBS and complete Freund's adjuvant (CFA). Twenty-one days later, mice were boosted intraperitoneally and subcutaneously in the other footpad with 100 μg of immunizing peptide emulsified in incomplete Freund's adjuvant (IFA). Sera were collected via retro-orbital bleed at day 28 for antibody analyses. For T cell assays, mice were immunized by the same route of administration with 100 μg of peptide emulsified 1:1 in CFA. […]
Polystyrene microtiter plates (Nunc) were coated with either 50 μg/ml peptide or 1 μg of rHER2 or rHER3 extracellular domains in buffer (0.05 M carbonate-bicarbonate buffer, pH 9.6; Sigma) and incubated overnight at 4° C. […] Wells were read on a SpectraMax 450 ELISA reader (Molecular Dynamics) at 405 nm.

HER2 p585 peptide = target: T4, HER2 p585 peptide (Homo sapiens, UniProt P04626); assay: ELISA, immune serum binding to HER2 p585 peptide; conditions: sera from Balb/c mice
T4 construct: host or cells: chemical synthesis
Experimental: as §1

HER3 p574 peptide = target: T5, HER3 p574 peptide (Homo sapiens, UniProt P21860); assay: ELISA, immune serum binding to HER3 p574 peptide; conditions: sera from Balb/c mice
T5 construct: host or cells: chemical synthesis
Experimental: as §1

[4] = tested on: MDA-MB-453 cells (HER2-positive, EGFR-negative); assay: Flow cytometry, binding to MDA-MB-453 cells; design: species or system human; conditions: serum 1:100 or antibody 5 μg/ml
Experimental: as §2

TUBO-EGFR cells = assay: In vivo tumor assay, TUBO-EGFR cells s.c. in immunized mice; conditions: immunized Balb/c mice, days 11, 13 and 18
Source text: as §3
Female Balb/c mice were immunized with either Asp or isoAsp EGFR p580 as described above for the generation of antibody. […] Tumor volume was calculated by measuring three orthogonal axes (a, b, and c) with digital calipers, with the tumor volume=abc/2 (Cho H S et al. (2003) Nature 421:756-60).

MDA-MB-453 cells [5] = assay: ADCC assay with human PBMC, MDA-MB-453 cells; format: cell-based; conditions: 1:25 serum or 20 μg/ml antibody, human PBMC 50:1, 4 h, compared to rituximab
Experimental: (§4) All experimental sera were heat-inactivated (56° C., 30 min) prior to use. A431 or MDA-MB-453 cells were incubated with a 1:25 dilution of heat-inactivated sera or control antibody (20 μg/ml) 30 min at 37° C. in 96-well U bottom plates. Freshly isolated human peripheral blood mononuclear cells (PBMC) from healthy donors were incubated with antibody coated target cells at a 50:1 effector to target ratio for 4 h at 37° C. Fifty microliters of each cell culture supernatant was then assayed for lactate dehydrogenase released from dead cells using the CytoTox96 Non-Radioactive Cytotoxicity Assay (Promega) per manufacturer's instructions. Percent cytotoxicity was calculated as [(experimental-effector spontaneous-target spontaneous)/(target maximum-target spontaneous)]×100.

A431 cells [6] = assay: ADCC assay with human PBMC, A431 cells; format: cell-based; conditions: 1:25 serum or 20 μg/ml antibody, human PBMC 50:1, 4 h
Experimental: as §4

[7] = mouse, in vivo
MDA-MB-453 cells [8] = conditions: control antibodies, 10-40 mg/ml concentrations tested
Experimental: Cells were incubated for three days with 1:25 dilutions of sera from either Asp or isoAsp p580 immunized Balb/c mice. Cell proliferation was measured by 3H-thymidine incorporation.

A431 cells [9] = conditions: isotype control 10 μg/ml, data not shown
native HER2 = native HER2 (Homo sapiens, UniProt P04626); conditions: Garrett J T et al. (2007); cited from earlier work

Immune serum binding to HER2 extracellular domain by ELISA [2]	Immune serum binding to HER3 extracellular domain by ELISA [3]	Immune serum binding to HER2 p585 peptide by ELISA (HER2 p585 peptide)	Immune serum binding to HER3 p574 peptide by ELISA (HER3 p574 peptide)	Molecule	T cell response to Asp and iso-Asp p580 [1]	Staining of A431 cells by flow cytometry (human EGFR on A431 cells)	Immune serum binding to homologous HER4 p578 peptide (HER4 p578 peptide)	Antibodies elicited by immunization, binding to EGFR peptides by ELISA (EGFR peptides)	Binding to MDA-MB-453 cells by flow cytometry [4]	Tumor size versus adjuvant alone (PBS-CFA) (TUBO-EGFR cells)	further results
bound	bound	bound	bound	CC[C@H](C)[C@H](N)C(=O)N[C@@H](CCC(N)=O)C(=O)N[C@@H](CS)C(=O)N[C@@H](C)C(=O)N[C@@H](Cc1c[nH]cn1)C(=O)N[C@@H](Cc1ccc(O)cc1)C(=O)N[C@H](C(=O)N[C@@H](CC(=O)O)C(=O)NCC(=O)N1CCC[C@H]1C(=O)N[C@@H](Cc1c[nH]cn1)C(=O)N[C@@H](CS)C(=O)N[C@H](C(=O)N[C@@H](CCCCN)C(=O)N[C@H](C(=O)N[C@@H](CS)C(=O)N1CCC[C@H]1C(=O)N[C@@H](C)C(=O)NCC(=O)O)[C@@H](C)O)C(C)C)[C@@H](C)CC [Asp EGFR p580] (H-IQCAHYIDGPHCVKTCPAG-OH; N-terminus and C-terminus assumed)	strong T cell responses to both Asp and iso-Asp p580	stained A431 cells above that seen with pre-immune sera	neither Asp nor isoAsp EGFR p580 antisera bound; also recorded: neither the Asp nor iso-Asp EGFR p580 antiserum bound	generated antibodies against Asp and iso-Asp p580, as well as Asp and iso-Asp p572 and Asp p596	showed affinity	significantly smaller tumors	
bound	bound	bound	bound	CC[C@H](C)[C@H](N)C(=O)N[C@@H](CCC(N)=O)C(=O)N[C@@H](CS)C(=O)N[C@@H](C)C(=O)N[C@@H](Cc1c[nH]cn1)C(=O)N[C@@H](Cc1ccc(O)cc1)C(=O)N[C@H](C(=O)N[C@@H](CC(=O)NCC(=O)N1CCC[C@H]1C(=O)N[C@@H](Cc1c[nH]cn1)C(=O)N[C@@H](CS)C(=O)N[C@H](C(=O)N[C@@H](CCCCN)C(=O)N[C@H](C(=O)N[C@@H](CS)C(=O)N1CCC[C@H]1C(=O)N[C@@H](C)C(=O)NCC(=O)O)[C@@H](C)O)C(C)C)C(=O)O)[C@@H](C)CC [isoAsp EGFR p580] (H-IQCAHYI[βAsp]GPHCVKTCPAG-OH; N-terminus and C-terminus assumed)	more robust response		neither Asp nor isoAsp EGFR p580 antisera bound	sera bound strongly to both isoforms of p572 and Asp 596	showed affinity	significantly smaller tumors	Binding to A431 cells relative to Asp-isoform counterpart (human EGFR on A431 cells; flow cytometry): ~10 fold; Shift in staining intensity of A431 cells (human EGFR on A431 cells; immune sera, flow cytometry): > 10 fold; Immune serum binding to homologous HER4 p578 peptide (HER4 p578 peptide; listed as iso-Asp EGFR p580): neither the Asp nor iso-Asp EGFR p580 antiserum bound
				IQCAHYIDGPHCVKTCPAG [EGFR p580]		bind to the EGFR overexpressing human A431 epidermoid carcinoma cell line at an epitope distinct from that recognized by cetuximab					ADCC killing of MDA-MB-453 cells (MDA-MB-453 cells [5]): significantly induced ADCC killing; ADCC killing of A431 cells (A431 cells [6]): exhibited significant killing; Autoimmunity, fur loss or skin pathology in immunized mice [7]: no signs of aberrant tissue autoimmunity
				Rituximab: human anti-CD20 monoclonal antibody							MDA-MB-453 cell growth inhibition (MDA-MB-453 cells [8]): failed to inhibit; A431 cell growth inhibition (A431 cells [9]): did not inhibit any A431 growth
				VACAHYKDPPFCVA [p585-598 HER2 peptide]							Elicited antibodies binding to native HER2 (native HER2): failed to elicit antibodies that bound strongly to native HER2
